Measurements taken from patent US7759375B2, “Epothilones C, D, E, and F, preparation and compositions” (priority 1996, dated 2010).
In brackets after ≈: the same amount, converted by molar mass. Read-outs that look alike come from different tables or passages of the source.

Legend:
[1] = test system: A-549 (carcinoma of the lung); experiment: Growth inhibition in cell culture, A-549; assay type: cell-based, human
Description: (§1) The epothilones according to the invention were tested with cell cultures (Table 2) and for promotion of polymerization (Table 3).

[2] = test system: KB-3.1 (carcinoma of the cervix); experiment: Growth inhibition in cell culture, KB-3.1; assay type: cell-based, human
Description: as §1

U-937 (lymphoma) = experiment: Growth inhibition in cell culture, U-937; assay type: cell-based, human
Description: as §1

[3] = test system: KB-VI (carcinoma of the cervix multires); experiment: Growth inhibition in cell culture, KB-VI; assay type: cell-based, human
Description: as §1

K-562 (leukaemia) = experiment: Growth inhibition in cell culture, K-562; assay type: cell-based, human
Description: as §1

[4] = target: T1, purified tubulin from pigs' brain (Sus scrofa, UniProt P02554); assay type: biochemical, pig; conditions: 0.9 mg of tubulin/ml, 1 μM sample concentration; for Time up to the half-maximal polymerization, Agent [%] (relative activity in % of the control): control = 100, lowest values indicate the best activity; for Time up to the half-maximal polymerization of the control, Agent [s]: average of experiments w-z, control 190 s; for Time up to the half-maximal polymerization of the control, measurement w: independent experiment w; for Time up to the half-maximal polymerization of the control, measurement x: independent experiment x; for Time up to the half-maximal polymerization of the control, measurement y: independent experiment y; for Time up to the half-maximal polymerization of the control, measurement z: independent experiment z
T1 construct: purified tubulin from pigs' brain; from tissue; host or cells: pig brain
T1 sequence (P02554 whole entry): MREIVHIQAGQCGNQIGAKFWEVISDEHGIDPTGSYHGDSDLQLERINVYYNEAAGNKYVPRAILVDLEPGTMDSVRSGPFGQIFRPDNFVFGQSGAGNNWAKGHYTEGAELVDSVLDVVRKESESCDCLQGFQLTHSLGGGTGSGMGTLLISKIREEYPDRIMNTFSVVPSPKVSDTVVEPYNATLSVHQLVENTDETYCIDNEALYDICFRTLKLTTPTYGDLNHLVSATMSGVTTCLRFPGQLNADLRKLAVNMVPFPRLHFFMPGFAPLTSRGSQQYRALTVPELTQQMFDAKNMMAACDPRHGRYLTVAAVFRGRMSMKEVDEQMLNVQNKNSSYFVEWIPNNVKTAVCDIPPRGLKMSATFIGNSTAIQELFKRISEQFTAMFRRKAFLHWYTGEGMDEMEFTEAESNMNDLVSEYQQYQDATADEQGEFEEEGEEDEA
T1 sequence (P02550 whole entry partner): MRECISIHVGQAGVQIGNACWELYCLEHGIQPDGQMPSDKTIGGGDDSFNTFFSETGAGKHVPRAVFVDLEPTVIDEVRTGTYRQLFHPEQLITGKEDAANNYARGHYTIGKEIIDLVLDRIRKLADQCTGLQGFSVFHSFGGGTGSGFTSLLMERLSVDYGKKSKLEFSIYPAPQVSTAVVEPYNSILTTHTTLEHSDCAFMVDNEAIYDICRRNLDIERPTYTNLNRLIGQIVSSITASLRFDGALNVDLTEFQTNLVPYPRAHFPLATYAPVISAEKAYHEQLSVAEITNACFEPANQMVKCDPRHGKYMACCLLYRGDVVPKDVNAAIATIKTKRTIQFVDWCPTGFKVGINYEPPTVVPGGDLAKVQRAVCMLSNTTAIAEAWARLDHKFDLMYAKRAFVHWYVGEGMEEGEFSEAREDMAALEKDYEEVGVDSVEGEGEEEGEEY
Description: as §1
The polymerization test is an in vitro test using purified tubulin from pigs' brain. Evaluation is carried out photometrically.

HL-60 (leukaemia) = experiment: Growth inhibition in cell culture, HL-60; assay type: cell-based, human
Description: as §1

Mouse fibroblasts L 929 = experiment: Growth inhibition in cell culture, mouse fibroblasts L929; assay type: cell-based
Description: as §1

[5] = test system: A-498 (carcinoma of the kidney); experiment: Growth inhibition in cell culture, A-498; assay type: cell-based, human
Description: as §1

[6] = KB-3.1 (carcinoma of the cervix)
[7] = KB-VI (carcinoma of the cervix multires)
[8] = A-498 (carcinoma of the kidney)

SMILES	IC-50 ([1]; A-549 (carcinoma of the lung))	IC-50 [2, 6]	IC-50 (U-937 (lymphoma); U-937 (lymphoma))	IC-50 [3, 7]	IC-50 (K-562 (leukaemia); K-562 (leukaemia))	Time up to the half-maximal polymerization, Agent [%] (relative activity in % of the control) [4]	Time up to the half-maximal polymerization of the control, Agent [s] [4]	Time up to the half-maximal polymerization of the control, measurement w [4]	Time up to the half-maximal polymerization of the control, measurement x [4]	Time up to the half-maximal polymerization of the control, measurement y [4]	Time up to the half-maximal polymerization of the control, measurement z [4]	IC-50 (HL-60 (leukaemia); HL-60 (leukaemia))	IC-50 (Mouse fibroblasts L 929; Mouse fibroblasts L 929)	IC-50 [5, 8]	IC-50 [5]	IC-50 [1]	IC-50 [2]	IC-50 (U-937 (lymphoma))	IC-50 [3]	IC-50 (K-562 (leukaemia))	other results
C/C(=C\c1csc(C)n1)[C@@H]1C[C@@H]2O[C@@H]2CCC[C@H](C)[C@H](O)[C@@H](C)C(=O)C(C)(C)[C@@H](O)CC(=O)O1 [Epothilone A, epothilone A, reference compound]	0.7 ng/mL	1 ng/mL	0.2 ng/mL	0.3 ng/mL	0.3 ng/mL	39%	74 s	95 s	60 s	70 s	70 s	0.2 ng/mL	4 ng/mL								IC50 ([2]; HeLa KB-3.1 (human), concentration which reduces the growth by 50%): 1 ng/mL (≈ 2.03 nM); IC50 (Mouse fibroblasts L 929; Mouse fibroblasts, L929, concentration which reduces the growth by 50%): 4 ng/mL (≈ 8.1 nM)
C/C(=C\c1csc(C)n1)[C@@H]1C[C@@H]2O[C@]2(C)CCC[C@H](C)[C@H](O)[C@@H](C)C(=O)C(C)(C)[C@@H](O)CC(=O)O1 [Epothilone B, epothilone B, reference compound]	0.1 ng/mL	0.6 ng/mL	0.2 ng/mL	0.3 ng/mL	0.3 ng/mL	14%	26 s		23 s	25 s	30 s	0.2 ng/mL	1 ng/mL	1.5 ng/mL							
C/C(=C\c1csc(C)n1)[C@@H]1C/C=C\CCC[C@H](C)[C@H](O)[C@@H](C)C(=O)C(C)(C)[C@@H](O)CC(=O)O1 [Epothilone C]	30 ng/mL	20 ng/mL	10 ng/mL	15 ng/mL	20 ng/mL	49%	94 s	125 s	76 s	95 s	80 s	10 ng/mL	100 ng/mL	150 ng/mL							
C/C1=C/C[C@@H](/C(C)=C/c2csc(C)n2)OC(=O)C[C@H](O)C(C)(C)C(=O)[C@H](C)[C@@H](O)[C@@H](C)CCC1 [Epothilone D]	10 ng/mL	12 ng/mL	3 ng/mL	3 ng/mL	10 ng/mL	56%	106 s	125 s	73 s	120 s		3 ng/mL	20 ng/mL	20 ng/mL							
C/C(=C\c1csc(CO)n1)[C@@H]1C[C@@H]2O[C@@H]2CCC[C@H](C)[C@H](O)[C@@H](C)C(=O)C(C)(C)[C@@H](O)CC(=O)O1 [Epothilone E]															20 ng/mL	3 ng/mL	5 ng/mL	1 ng/mL	5 ng/mL	2 ng/mL	IC50 [2]: 5 ng/mL (≈ 9.81 nM); IC-50 (HL-60 (leukaemia)): 1 ng/mL; IC50 (Mouse fibroblasts L 929): 20 ng/mL (≈ 39.2 nM); IC-50 (Mouse fibroblasts L 929): 20 ng/mL
C/C(=C\c1csc(CO)n1)[C@@H]1C[C@@H]2O[C@]2(C)CCC[C@H](C)[C@H](O)[C@@H](C)C(=O)C(C)(C)[C@@H](O)CC(=O)O1 [Epothilone F]															3 ng/mL	0.1 ng/mL	0.5 ng/mL	0.2 ng/mL	0.6 ng/mL	0.5 ng/mL	IC-50 (HL-60 (leukaemia)): 0.3 ng/mL; IC-50 (Mouse fibroblasts L 929): 1.5 ng/mL
